Values quoted from earlier work, collected in patent publication US6962905B1, “Pharmaceutical formulation comprising a low molecular weight thrombin inhibitor and its prodrug” (AstraZeneca AB, priority 1999, dated 2005).

system: DVT after total hip/knee replacement or major surgery; conditions: background statements from literature

Compound	effect on incidence of DVT after surgery
CC(=O)Oc1ccccc1C(=O)O [aspirin]	limited efficacy
CC(=O)CC(c1ccccc1)c1c(O)c2ccccc2oc1=O (stereo not drawn) [warfarin]	effective in reducing DVT
hirudin	superior to unfractionated heparin and LMWH
